Data: a melting point compilation (Tetko et al.; mined from patent text by program, amines drawn as free bases though some values may be those of a salt)

With `O=C(O)CCC(=O)c1ccc(-c2ccc(C(F)(F)F)cc2)cc1` the melting point was 172 to 174 °C.
For `Cc1c(-c2ccccc2)nc(N)nc1C1CCN(Cc2cccc(C#N)c2)CC1`, the melting point was 176 °C.
`Cc1cn(-c2ccc(N3C[C@H](COS(C)(=O)=O)OC3=O)cc2F)cn1` gave a melting point of 151 to 153 °C.
Work on `CC(C)(C)C(=O)OC(COc1cccc2[nH]ncc12)CN1CCC(COc2ccccc2)CC1` (centres undefined) yielded a melting point of 116 to 118 °C.
In the case of `NC(=O)C1CN(CCCCN(c2ccc(F)cc2)c2ccc(F)cc2)CCN1` (centres undefined), the melting point is reported as 67.4 °C.
In the case of `COC(=O)C1Cc2c([nH]c3ccccc23)CN1C(=O)c1ccc(Cl)cc1` (centres undefined), the melting point is reported as 243 to 244 °C.
For `Cc1nc(NCC2CC2)c2nnn(-c3ccc(C(C)C)cc3Br)c2n1`, the melting point was 166 to 167 °C.
Compound `CNc1ncnc(N)c1N` has a melting point of 180 to 185 °C.
`CCCCCCCCCCC[C@@H]1CC(O)=C(CCCCCC)C(=O)O1` showed a melting point of 106 to 108 °C.
`CC(NS(=O)(=O)c1ccc([N+](=O)[O-])cc1[N+](=O)[O-])c1ccccc1` (centres undefined) showed a melting point of 160 to 161 °C.
`CCC12CCC3C4CCC(=O)C=C4CCC3C1CCC2OC(=O)CCC1CCCC1` (centres undefined) showed a melting point of 88 to 89 °C.
For `CC(=O)C1CCC2C3CCC4=CC(=O)C=CC4(C)C3CCC12C` (centres undefined), the melting point was 183 to 185 °C.
`O=C1CC(c2cccc(-n3ccnc3)c2)=Nc2ccc(-c3ccc(OCc4ccccc4)nc3)cc2N1` showed a melting point of 225 to 231 °C.
For `O=c1c2ccc(OCc3ccccc3)cc2[nH]c2c([N+](=O)[O-])ccc(Cl)c12`, the melting point was 198 to 202 °C.
Compound `Clc1cc2nc3c4ccccc4c4ccccc4c3nc2cc1Cl` has a melting point of 263 to 264 °C.
In the case of `CC(C)(C)OC(=O)NC(CF)C(F)CN1C(=O)c2ccccc2C1=O` (centres undefined), the melting point is reported as 152 to 153 °C.
For `CSCC(=O)Nc1ccccc1`, the melting point was 100 °C.
Work on `O=C(Nc1ccc(OCCN2CCCC2=O)c2ccccc12)c1cc(F)cc(N2CCOCC2)c1` yielded a melting point of 172 to 173 °C.
Work on `NC1=NN(c2ccccc2)C(c2ccc(Cl)c(Cl)c2)C1` (centres undefined) yielded a melting point of 150 to 152 °C.
For `Fc1ccc(-n2ccc3cc(-c4ccccn4)ccc32)cc1`, the melting point was 119 to 121 °C.
Compound `CC1CN(c2ccc(S(N)(=O)=O)cc2)CC(C)N1CCC1OCCc2ccccc21` (centres undefined) has a melting point of 170 to 175 °C.
In the case of `Cc1ccccc1N1CCc2c(C)nc3ccccc3c21`, the melting point is reported as 148 to 150 °C.
In the case of `O=C1N(Cc2nnc(Cl)s2)c2ccccc2C12COc1cc3c(cc12)OCO3` (centres undefined), the melting point is reported as 194 to 197 °C.
With `c1ccc(Oc2ccc(N3CCNCC3)nc2)cc1` the melting point was 80.5 to 83 °C.
Compound `CCN(CC)C(=O)OCC1CN(C(=S)c2cc(OC)c(OC)c(OC)c2)CCN1C(=O)c1cc(OC)c(OC)c(OC)c1` (centres undefined) has a melting point of 106 °C.
`O=C(Nc1ccccc1)OCc1cn(-c2cc3cc(C(=O)O)c(=O)[nH]c3cc2C(F)(F)F)cn1` gave a melting point of 178 to 180 °C.
For `COc1ccc2oc(=O)c(-c3ccccc3)c(OCCN3CCOCC3)c2c1`, the melting point was 118 °C.
Compound `Clc1ccc(Oc2ccc(Cl)nn2)cc1` has a melting point of 119 °C.
`CC(C)(C)OC(=O)NCCOC(=O)COc1ccc(CCCCN(C(=N)N)C(=O)c2nc(Cl)c(N)nc2N)cc1` showed a melting point of 80 to 82 °C.
With `CN(C)CC/C=C1/c2ccccc2CCc2ccc(Br)cc21` the melting point was 73 to 75 °C.
Work on `O=C(O)c1nc2cc(N3CCN(Cc4ccccc4)CC3)c([N+](=O)[O-])cc2[nH]c1=O` yielded a melting point of 278 to 280 °C.
`CCCOCCOC(=O)C1=C(C)NC(C)=C(C(=O)C(C)S(=O)(=O)NC)C1c1cccc([N+](=O)[O-])c1` (centres undefined) gave a melting point of 120 to 123 °C.
For `CCc1cc(OCc2ccc(-c3ccccc3C#N)cc2)c2ccccc2n1`, the melting point was 151 to 153 °C.
In the case of `CC(C)c1nc(COCc2ccccc2)n(Cc2ccccc2)c1Sc1cccc(Cl)c1`, the melting point is reported as 120 to 122 °C.
Compound `CCOC(=O)Cn1ccn2nc(-c3ccccc3)cc12` has a melting point of 85 to 87 °C.
`COC(=O)[C@@H]1O[C@@H](c2ccccc2)N(NS(=O)(=O)c2ccc([N+](=O)[O-])cc2)[C@H]1c1ccccc1` showed a melting point of 118 to 120 °C.
`Cc1cc2c(cc1C)C(c1ccccc1)(C(F)(F)C(F)(F)F)c1cc(C)c(C)cc1O2` gave a melting point of 178 to 179 °C.
`Cc1ccc(-c2nc(C)cc(O)n2)cc1` gave a melting point of 206 to 207 °C.
Work on `C(=C\c1nc2ccccc2s1)/c1cccc(NCCCc2nnn[nH]2)c1` yielded a melting point of 168 to 169 °C.
With `CCC1=C(c2cccc(C(F)(F)F)c2)n2ncc(C#N)c2N(C(=O)CN2CCN(Cc3ccccc3)CC2)C1` the melting point was 97 to 99 °C.
In the case of `CC(C#N)(CO)NS(=O)(=O)Cc1ccccc1` (centres undefined), the melting point is reported as 153 to 155 °C.
`CCC(CC)c1ccc(Cl)c2nc3n(c12)CCCCN3c1ccc(C(=O)N(C)C)cc1C` showed a melting point of 113 to 114 °C.
`CCCN(CCC)C(=O)n1cnc(S(=O)(=O)CC)n1` gave a melting point of 44 to 45 °C.
`O=S1(=O)NC(c2ccccc2)Nc2c(Br)cc(Br)cc21` (centres undefined) gave a melting point of 186 to 189 °C.
`COc1ccc2[nH]c(/C(=C/c3ccccc3)c3ccccc3)cc2c1` gave a melting point of 144 to 147 °C.
With `CCCCC1=N/C(=C\c2c[nH]c3ncccc23)C(=O)N1C` the melting point was 220 to 222 °C.
With `CCN1C(=O)C(C)(C)C(=O)N(C)c2cc(CN(CCn3ccc4oc(C)cc4c3=O)Cc3cccnc3C=O)ccc21` the melting point was 147 to 149 °C.
In the case of `CN1C(=O)CSC(c2cccc(Cl)c2)c2cc(C(N)(c3ccc(Cl)cc3)c3cncn3C)ccc21` (centres undefined), the melting point is reported as 218 °C.
Work on `Cc1ccc2c(c1)C=Cc1sc(C)nc1C2c1cn(C)c(=O)[nH]c1=S` (centres undefined) yielded a melting point of 235 to 237 °C.
With `NC(=O)c1c(Cl)c(-c2ccccc2)n2c1CN(C(=O)CCC1CCCC1)CC2` the melting point was 172 to 174 °C.
With `CNN(Cc1ccccc1N)c1ccccc1` the melting point was 57 to 59 °C.
Compound `OCc1c[nH]c(Cc2ccccc2)n1` has a melting point of 134 to 135 °C.
With `ClCCCOc1ccccc1Cc1cccc2[nH]ccc12` the melting point was 75 °C.
With `COc1cc2c(cc1OC)C(c1cccc(Cl)c1)=NNC(C)C2` (centres undefined) the melting point was 116 to 120 °C.
`CN1CCN(c2ccc(Nc3ncc4ccc(-c5cccc6c5OCCO6)n4n3)cc2)CC1` showed a melting point of 212 to 213 °C.
For `CCOC(=O)C(=O)Nc1cccc(N)c1C#N`, the melting point was 133 to 136 °C.
Work on `COc1ccccc1C1=C(C#N)C(c2cccc3nonc23)c2c[nH]nc2N1` (centres undefined) yielded a melting point of 180 °C.
Work on `CCOC(=O)c1c(C(F)(F)F)nc(C(F)F)c(C(=O)OC)c1N(C)C1CC1` yielded a melting point of 37 to 40 °C.
Work on `O=C(O)C1Cc2c(ccc3c(=O)c4c(Cl)cccc4oc23)O1` (centres undefined) yielded a melting point of 283 to 286 °C.
For `CCOC(=O)Nc1ccc(OC)c(OC)c1`, the melting point was 75 to 78 °C.
For `O=C1CCC2(c3ccc(-c4ccc(OC(F)(F)F)cc4)cc3)OCC(c3ccccc3)N12` (centres undefined), the melting point was 104 °C.
`O=C(c1ccc2nonc2c1)N1CC=CC1` showed a melting point of 117 to 118 °C.
For `N=C(NCCCc1c[nH]cn1)N[N+](=O)[O-]`, the melting point was 156 to 158 °C.
Work on `CCCCCCCCCCCC(=O)c1c[nH]c(C(=O)OC)c1` yielded a melting point of 102 to 103 °C.
`CCC(CC(=O)NC(=O)OC(C)(C)C)Nc1ccc(OC)cc1` (centres undefined) gave a melting point of 65 to 66 °C.
Compound `CCCc1cccn2c(=O)c(-c3nnn[nH]3)cnc12` has a melting point of 269 to 272 °C.
`COCc1ccc(C#Cc2ccc3c(c2)C(C)(C)CCC3(C)C)cc1` showed a melting point of 93 to 94 °C.
`CC(=O)NCc1ccc2ccn(C3CCN(CCc4ccccc4F)CC3)c2c1` showed a melting point of 101 to 102 °C.
`COc1ccc(CCC(C)=O)cc1S(N)(=O)=O` showed a melting point of 176 to 179 °C.
In the case of `COc1ccc(CN2C(=O)C(NC(=O)OCc3ccccc3)C2C2COC(=O)O2)cc1OC` (centres undefined), the melting point is reported as 135 to 136 °C.
In the case of `COc1cccc(CNc2ncnc3c2sc2nc(N4CCCC4)c4c(c23)CC(C)(C)CC4)c1OC`, the melting point is reported as 194 to 195 °C.
Compound `CC(=Cc1ccc([N+](=O)[O-])cc1)C(=O)Oc1ccc(Cl)cc1` has a melting point of 111 to 112 °C.
`Cc1cccc(C)c1N1CCN(CCNc2c(Cl)cnn(C)c2=O)CC1` showed a melting point of 225 to 232 °C.
`COC(=O)CCc1ccc(OCC(C)NCC(O)c2cccc(Cl)c2)cc1` (centres undefined) showed a melting point of 65 to 73 °C.
`CCOC(=O)C=Cc1ccc(C(=O)O)cc1` showed a melting point of 196 to 197 °C.
`C#CCn1c(-c2ccc(Cl)nc2Cl)nc(OS(=O)(=O)C(F)(F)F)c(OC)c1=O` showed a melting point of 133 to 135 °C.
In the case of `CCOC(=O)C=CC=Cc1ccc(-n2ccnc2)cc1`, the melting point is reported as 126 to 127 °C.
Work on `COc1cc(C=CC=C2OC(=O)NC2=O)ccc1OCc1coc(-c2ccccc2)n1` yielded a melting point of 227 to 228 °C.
`O=C1N(Cc2ncccc2C(F)F)c2ccccc2C12COc1cc3c(cc12)OCCO3` (centres undefined) gave a melting point of 181 to 182 °C.
`COC(=O)c1cccc2nc(N3CCCCC3)n(Cc3ccc(-c4ccccc4-c4nnn[nH]4)cc3)c12` gave a melting point of 146 to 150 °C.
In the case of `Cc1c(F)c(N2CCC(n3ccnn3)C2)c(F)c2c1c(=O)c(C(=O)O)cn2C1CC1` (centres undefined), the melting point is reported as 228 to 230 °C.
With `CCCCC(=O)C(Cc1ccc(C(=O)OC)cc1)c1ccccc1` (centres undefined) the melting point was 58 °C.
Compound `CC(=O)n1ncc2c(O)ccc(C)c21` has a melting point of 135 to 136 °C.
Compound `O=C(c1ccccc1)c1ccc2sc(NCCCO)nc2c1` has a melting point of 162 °C.
For `CC(C)(C)c1ccc(N2C(=O)c3ccc4c5cccc6cccc(c7ccc(c3c47)C2=O)c65)cc1`, the melting point was greater than 330 °C.
In the case of `N#CCC=Cc1ccc(Cc2ccc(C=CCC#N)cc2)cc1`, the melting point is reported as 128 to 130 °C.
Work on `O=C1CCC(N2C(=O)c3cccc(NCC(=O)NC4CC4)c3C2=O)C(=O)N1` (centres undefined) yielded a melting point of 240 to 242 °C.
Work on `COc1ccc(-c2c(OCCN3CCOCC3)c3ccccc3oc2=O)cc1` yielded a melting point of 104 °C.
Compound `O=C(O)Cc1ccc2c(c1)C(=O)c1ccccc1CO2` has a melting point of 126 to 128 °C.
`CCCCCCCCCCCCCCCCCCOP(=O)(Cc1c(C)cc(C(C)(C)C)c(O)c1C)OCCCCCCCCCCCCCCCCCC` showed a melting point of 70 to 72 °C.
With `CC(C)(C)OC(=O)N1CCN(C(=O)OC[C@@]2(C)Cn3cc([N+](=O)[O-])nc3O2)CC1` the melting point was 211 to 212 °C.
With `OCc1nc2cccnc2n1Cc1ccc(-c2ccccc2)cc1` the melting point was 163 to 165 °C.
In the case of `CCOC(=O)c1ccc(CN2CCN(C(=O)OC(C)(C)C)C(C(N)=O)C2)c(C(F)(F)F)c1` (centres undefined), the melting point is reported as 124 to 125 °C.
For `CCCC(=O)c1c[nH]c2c(OC)csc2c1=O`, the melting point was 222 to 225 °C.
Compound `Cc1cc2cc(CN3CCCC3)cnc2cc1NC(=O)c1ccc(-c2ccccc2)cc1F` has a melting point of 180 to 183 °C.
Work on `CCCNC(=O)Nc1ccc(C(=O)OC)c(NC(=O)NC(C)C)c1` yielded a melting point of 94 to 95 °C.
For `COC(=O)CCCC#Cc1cc(C)c2oc(=O)n(C)c2c1`, the melting point was 97 to 98 °C.
Compound `CCc1cccc(CC)c1N1C(=S)N(C)C(O)C1O` (centres undefined) has a melting point of 87 to 90 °C.
In the case of `CCC(=O)c1cc(O)cc2cc(-c3ccc(O)cc3)oc12`, the melting point is reported as 257 to 260 °C.
